Experimental findings from publication PMC5915154, “Aloe-emodin as drug candidate for cancer therapy” (Oncotarget, 2018) are described below.

SMILES strings stand for the structures.

Test [1] relates to CCRF-CEM cells. The experiment in a line: Alkaline comet assay (DNA damage). The settings on record: 1-, 2- or 4-fold IC50, 24 h. The class given is cell-based, human. The procedure: The OxiSelect™ Comet Assay Kit (Cell Biolabs/Biocat, Heidelberg, Germany) was used to detect DNA damage according to the manufacturer’s instructions. CCRF-CEM cells treated with 1-, 2- and 4-fold IC50 of Aloe-emodin for 24 h. Then, the cells were mixed with agarose and applied to OxiSelect™ Comet Assay slides. These slides including the embedded cells were treated with lysis buffer and alkaline solution. Subsequently, electrophoresis was performed on the slide with a voltage of 22 V for 30 min corresponding to 1 V/cm of the electrophoresis chamber. These slides were washed with distilled water. After fixation with 70% ethanol, the slides were stained with by a fluorescent DNA binding dye.
Then, the slides were photographed by a fluorescence microscope (EVOSs FL Cell Image System, Thermo Fisher Scientific Waltham, USA) using a FITC filter with an excitation wavelength of 490 nm and emission at 520 nm. At least 50 cells per image were randomly selected and analyzed with the OpenComet software (http://www.cometbio.org). Percentages of tail DNA, tail moment and olive moment were assessed as parameters for DNA damage. The statistical significance was determined by one-way ANOVA with Tukey’s multiple comparison test.

The test system of test [2] is CCRF-CEM cells. In words: Protease viability marker assay (GF-AFC). Conditions: Homo sapiens, 72 h. The class given is cell-based. The procedure:
The protease viability marker assay was performed to exclude the possibility that the cytotoxicity of Aloe-emodin measured by the resazurin assay was artificially influenced by any non-intended interaction with Aloe-emodin-induced ROS generation. The assay measures the protease activity within living cells. The protease activity is restricted to intact viable cells and is measured using a flourogenic, cell permeant, peptide substrate (glyxyl-phenylalanyl-aminoflourocoumarin; GF-AFC). The substrate enters intact cells, where it is cleaved by proteases to generate a fluorescent signal proportional to the number of living cells. Briefly, CCRF-CEM cells (2×10^4cells/well) were seeded in 96 well plate. Aloe-emodin was added in a dose dependent manner (0.001 – 100 μM). After 72 h, 100 μL of GF-AFC substrate (Promega, Madison, USA) were added to each well, cells were incubated for 30 min at 37°C. Using Infinite M2000Pro™ plate reader (Tecan, Crailsheim, Germany), the fluorescent intensity was measured at an excitation wavelength 400 nm, and emitted light was collected at 505 nm.

The test system of test [3] is mRNA expression (DUSP6, HHEX, MCMDC2, CRCP) in CCRF-CEM cells. The experiment in a line: qPCR validation of microarray data. The class given is cell-based, human. Conditions: CCRF-CEM treated vs untreated, normalized to GAPDH. The procedure: Primer sequences of HHEX, MCMDC2 and CRCP were designed using NCBI and GenScript Real Time PCR Primer Design (https://www.genscript.com/ssl-bin/app/primer) websites. DUSP6, HHEX, MCMDC2 and CRCP primers were synthesized by Eurofins MWG Operon (Ebersberg, Germany) and their sequence specificities were checked by NCBI Primer-Blast (http://www.ncbi.nlm.nih.gov/tools/primer-blast). The reaction properties of primers were calculated by Eurofins genomics (https://www.eurofinsgenomics.eu/en/dna-rna-oligonucleotides/oligo-design-more/oligo-property-scan.aspx). The primer sequences were as follows: DUSP6, forward (5′–3′): […], reverse (5′–3′): […] [75]; HHEX, forward: […], reverse: […]; MCMDC2, forward: […], reverse: […]; CRCP, forward: […], reverse: […]. Total RNA was isolated by InviTrap Spin Universal RNA Mini kit (Stratec Molecular) according to the manufacturer’s instruction. One microgram RNA was converted to cDNA using RevertAid H Minus First Strand cDNA Synthesis Kit (Thermo Scientific). The mRNA levels were analyzed by using of 5×Hot Start Tag EvaGreen® qPCR Mix (no ROX) (Axon Labortechnik, Kaiserslautern, Germany) and CFX384™ Real-Time PCR Detection System (Bio-Rad, Munich, Germany). RT-PCR was performed with an initial denaturation at 95°C for 10 second followed by 40 cycles including strand separation at 95°C for 15 s, annealing at 62°C for 30 s and extension at […] for 1 min. The GAPDH, HPRT1 and RLP13 genes were used as housekeeping genes. The expression data were normalized using Bestkeeper software. […] Therefore, GAPDH was used for normalization. Forward and reverse primer sequences of GAPDH were […] for forward and […] for reverse, respectively.
Furthermore, forward and reverse primer sequences of HPRT1 were […] for forward and […] for reverse as well as of RLP13A were TATGCTGCCCCACAAAACC for forward and […] for reverse, respectively. • The quantification method was done as follow: • ΔCt = Ct gene test – Ct endogenous control. • ΔΔCt = ΔCt sample1 – ΔCt calibrator. • RQ = Relative quantification = 2-ΔΔCt.
The RQ is the fold-change compared to the calibrator (untreated sample, time zero, etc.). The calibrator has an RQ value of 1. All samples were compared to the calibrator.
(In general: In qPCR the cycle at which signal appears reflects the starting amount.)

The test system is the same in test [4]. The experiment in a line: Microarray-based mRNA expression profiling. The class given is cell-based, human. The settings on record: CCRF-CEM treated with IC50 for 48 h vs DMSO; FC: fold change. The procedure:
We performed microarray hybridizations to find clues on the possible mechanisms of action of Aloe-emodin. CCRF-CEM cells were treated with the IC50 of Aloe-emodin or DMSO for 48 h. Using Chipster software, 1712 genes were deregulated upon Aloe-emodin treatment in comparison with DMSO treatment as control. These genes were subsequently subjected to Ingenuity Pathway Analysis (IPA) to obtain profiles of possibly affected signaling pathways. The most pronounced molecular and cellular functions identified by IPA were: cell death and survival, cellular growth and proliferation, cellular development, gene expression, cellular function and maintenance (Figure 4A).
Total RNA was isolated by InviTrap Spin Universal RNA Mini kit (Stratec Molecular, Berlin, Germany) according to the manufacturer’s instructions. The quality control of total RNA, probe labeling, hybridization, scanning and data analysis was performed in the Genomics and Proteomics Core Facility at the German Cancer Research Center (DKFZ, Heidelberg, Germany). Details have been previously described. The Chipster software was used to filter the set of differentially expressed genes obtained from microarray hybridization (http://chipster.csc.fi/) with a p value lower than 0.05. These filtered genes with fold-changes of more than 1-fold were selected for Ingenuity Pathways Analysis Software (http://www.ingenuity.com/ Ingenuity Systems, Redwood City, CA, USA) to obtain profiles of genetic networks and signaling pathways. The protocol has been recently reported by us.

In general, IC50 refers to the midpoint of a concentration-inhibition curve. With `O=C1c2cccc(O)c2C(=O)c2c(O)cc(CO)cc21` [Aloe-emodin], in the test on CCRF-CEM cells [1], the “DNA damage (comet tails, tail DNA %, tail and olive tail moment)” value is recorded as “induced DNA damage in a dose-dependent manner”. In addition, in the test on CCRF-CEM cells [2], inhibition was half-maximal at 13.8 µM (IC50). For the same compound, in test [3], the “qPCR data (FC), CRCP” value is recorded as -2.63 FC; the “qPCR data (FC), DUSP6” value is 1.40 FC; the “qPCR data (FC), HHEX” value is on record as 2.23 FC; the “qPCR data (FC), MCMDC2” value is given as -2.47 FC. In addition, in test [4], the “Microarray data (FC), CRCP” value is given as -2.219 FC; the “Microarray data (FC), DUSP6” value amounted to 2.403 FC; the “Microarray data (FC), HHEX” value came to 2.321 FC; the “Microarray data (FC), MCMDC2” value is recorded as -2.227 FC.
